test system: Pin1 protein; assay: Confirmation of Pin1 expression level in the intestinal tract of DSS mice (Example 7); assay type: in vivo; conditions: after 7 days of administration
Procedure: The expression level of Pin1 in the intestinal tract was measured for each mouse subjected to the therapeutic experiment in Example 5.
The present results also support that the compound synthesized in Example 2-7 (H-31) prevents development of ulcerative colitis.

Compound	increase in the Pin1 protein level in the intestinal tract
Nc1ccc(O)c(C(=O)O)c1 [Compound 5-ASA, 5-aminosalicylic acid, reference compound]	could not be ameliorated

molecular target: T1, Pin1 (Homo sapiens, UniProt Q13526); assay: Evaluation of inhibitory activity on function of Pin1: cell assay using degree of AMPK phosphorylation as index; assay type: cell-based; set-up: key to Pin1 inhibitory activity: −: Promotion of AMPK phosphorylation was not (or hardly) found.; +: Phosphorylation of AMPK was promoted, but the promotion was weaker than that by C1.; ++: Phosphorylation of AMPK was promoted to the same degree as in the case of C1.; +++: Phosphorylation of AMPK was promoted more strongly than in the case of C1; conditions: 293T cells, compound 100 μM, 10 mM 2-DG, pAMPK immunoblot rated by comparison with C1
T1 construct: endogenous in cells; host or cells: 293T cells
Procedure: In order to evaluate the inhibitory activities of the compounds of the present invention synthesized in Example 2 on the function of Pin1, an assay using cells was carried out according to a method previously developed by the present inventors (Yusuke Nakatsu et al., Journal of Biological Chemistry, 2015, Vol. 290, No. 40, pp. 24255-24266), using as an index the degree of phosphorylation of AMPK (AMP-activated protein kinase), whose phosphorylation is known to be suppressed by Pin1.
Briefly, 293T cells were plated on a 24-well plate coated with collagen. Forty-eight hours later, each compound (100 μM) synthesized in the Example was added to the plate, and the plate was left to stand in an incubator for 30 minutes. Thereafter, 10 mM 2-DG was added to the plate, and, 1 hour later, each sample was collected using a buffer containing mercaptoethanol and SDS.
According to conventional methods, SDS-PAGE and blotting were carried out, and then blocking was carried out with 3% BSA for 1 hour. Thereafter, reaction was carried out at normal temperature for 1 hour with each of a pAMPK antibody (Cell signaling 1:2000, Can get signal solution 1: diluted by Toyobo) as a primary antibody, and an HRP-linked anti rabbit IgG (GE healthcare 1:4000, Can get signal solution 2: diluted by Toyobo) as a secondary antibody, to perform detection.
As a compound to be compared, C1: (R)-2-(5-(4-methoxyphenyl)-2-methylfuran-3-carboxamido)-3-(naphthalene-6-yl)propanoic acid, which is an already reported Pin1 inhibitor, was used.
In FIG. 3, “-” indicates the degree of phosphorylation of AMPK in a case where no Pin1 inhibitor was added, and “C1”, “H-30”, “H-31”, “H-32”, and “H-33” indicate the degrees of phosphorylation of AMPK in cases where the respective Pin1 inhibitors were added. […] The inhibitory activity on the function of Pin1 was rated as follows based on comparison with the degree of inhibition by C1.

T1 sequence (Q13526 whole entry): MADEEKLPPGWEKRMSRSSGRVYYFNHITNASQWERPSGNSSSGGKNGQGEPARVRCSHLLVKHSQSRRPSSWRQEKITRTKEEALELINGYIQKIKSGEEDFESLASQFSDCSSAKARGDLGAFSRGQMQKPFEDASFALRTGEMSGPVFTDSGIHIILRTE

Compound	Pin1 inhibitory activity
O=C(O)[C@@H](Cc1ccc2ccccc2c1)OC(=O)N1c2ccccc2Oc2ccccc21 [Compound H-157]	++
O=C(O)[C@@H](Cc1ccc2ccccc2c1)OC(=O)n1c2ccccc2c2ccccc21 [Compound H-175]	+++
O=C(CC1c2ccccc2-c2ccccc21)O[C@H](Cc1ccc2ccccc2c1)C(=O)O [Compound H-106]	++
O=C(O[C@H](Cc1ccc2ccccc2c1)C(=O)OCc1ccccc1)c1ccc2ccccc2c1 [Compound H-21]	−
CC(C)(C)OC(=O)N[C@@H](Cc1ccccc1)C(=O)O[C@H](Cc1ccc2ccccc2c1)C(=O)O [Compound H-248]	+
O=C(O[C@H](Cc1ccc2ccccc2c1)C(=O)O)C(c1ccccc1)c1ccccc1 [Compound H-134]	++
O=C(O[C@@H](Cc1ccc2ccccc2c1)C(=O)O)C1c2ccccc2-c2ccccc21 [Compound H-141]	+++
O=C(Cc1cccc2ccccc12)O[C@H](Cc1ccc2ccccc2c1)C(=O)O [Compound H-151]	++
O=C(COc1cccc2ccccc12)O[C@H](Cc1ccc2ccccc2c1)C(=O)O [Compound H-179]	+++
O=C(Cc1c[nH]c2ccccc12)O[C@H](Cc1ccc2ccccc2c1)C(=O)O [Compound H-180]	++

Other lines, results leading:

Pin1 inhibitory activity	Compound
++	O=C(COc1ccc2ccccc2c1)O[C@H](Cc1ccc2ccccc2c1)C(=O)O [Compound H-177]
+	O=C(O[C@H](Cc1ccc2ccccc2c1)C(=O)O)c1ccc(-c2ccccc2)cc1 [Compound H-33]
++	O=C(O[C@H](Cc1ccc2ccccc2c1)C(=O)O)c1ccc(C(O)c2ccccc2)cc1 (stereo partly shown) [Compound H-23]
+	COc1ccc(-c2cc(C(=O)O[C@H](Cc3ccc4ccccc4c3)C(=O)O)c(C)o2)cc1 [Compound H-32]
+	COc1ccc(C(=O)O[C@H](Cc2ccc3ccccc3c2)C(=O)O)cc1OC [Compound H-266]
+	Cc1cc(C)cc(C(=O)O[C@H](Cc2ccc3ccccc3c2)C(=O)O)c1 [Compound H-210]
+	O=C(O[C@H](Cc1ccc2ccccc2c1)C(=O)O)c1ccc(F)c(F)c1 [Compound H-270]
+	O=C(O[C@H](Cc1ccc2ccccc2c1)C(=O)O)c1ccc(Cl)c(Cl)c1 [Compound H-269]
+	O=C(Cc1ccc2ccccc2c1)O[C@H](Cc1ccc2ccccc2c1)C(=O)O [Compound H-149]
+	O=C(O[C@H](Cc1ccc2ccccc2c1)C(=O)O)c1ccccc1Oc1ccccc1 [Compound H-132]
++	O=C(COc1ccccc1)O[C@H](Cc1ccc2ccccc2c1)C(=O)O [Compound H-176]
+	COc1cc(OC)cc(C(=O)O[C@H](Cc2ccc3ccccc3c2)C(=O)O)c1 [Compound H-198]
+	Cc1ccc(C(=O)O[C@H](Cc2ccc3ccccc3c2)C(=O)O)cc1C [Compound H-265]
++	O=C(O[C@H](Cc1ccc2ccccc2c1)C(=O)O)c1cccc(Oc2ccccc2)c1 [Compound H-130]
++	O=C(O[C@H](Cc1ccc2ccccc2c1)C(=O)O)c1ccc2ccccc2c1 [Compound H-30]
++	O=C(O[C@H](Cc1ccc2ccccc2c1)C(=O)O)c1ccc(Oc2ccccc2)cc1 [Compound H-123]
+	O=C(O[C@H](Cc1ccc2ccccc2c1)C(=O)O)c1cc(Cl)cc(Cl)c1 [Compound H-200]

same assay, conditions: cell-based experiment, 293T cells, 100 μM

inhibitory activity on Pin1 (stated in words)	Compound
no inhibitory activity on Pin1	O=C(O[C@H](Cc1ccc2ccccc2c1)C(=O)OCc1ccccc1)c1ccc2ccccc2c1 [Compound H-21]
both have inhibitory activities on Pin1	O=C(O[C@@H](Cc1ccc2ccccc2c1)C(=O)O)C1c2ccccc2-c2ccccc21 [Compound H-141]

test system: model animals of ulcerative colitis (3% DSS); assay: Therapeutic experiment using model animals of ulcerative colitis 2 (Example 6); assay type: in vivo, C57BL6 mice; conditions: DSS mice, 5-ASA 300 mg/kg/day or 150 mg/kg/day
Procedure: To C57BL6 mice of 8 weeks old, 3% DSS (dextran sulfate sodium)-containing water or water (control) was administered by allowing the mice to drink it for 7 days. […] On Day 7 after the beginning of the administration, the body weight of each mouse was measured, and the large intestine was removed from the mouse, followed by carrying out histological study. […] In addition, an experiment for measuring the colon length was carried out.

Compound	tissue damage in the large intestine (stained section)	weight loss
Nc1ccc(O)c(C(=O)O)c1 [Compound 5-ASA, 5-aminosalicylic acid, reference compound]	tissue damage in the large intestine due to DSS was found	No significant effect was found

test system: mice having induced inflammation of the large intestine; assay: not given; conditions: oral administration to mice, Non-patent Document 7; cited from earlier work

Compound	development of inflammation of the large intestine
O=C1C=CC(=O)c2c(O)cccc21 [Juglone]	development of the inflammation can be suppressed
COc1ccc(-c2cc(C(=O)N[C@H](Cc3ccc4ccccc4c3)C(=O)O)c(C)o2)cc1 [Compound C1, (R)-2-(5-(4-methoxyphenyl)-2-methylfuran-3-carboxamido)-3-(naphthalene-6-yl)propanoic acid]	development of the inflammation can be suppressed

test system: model animals of ulcerative colitis (3% DSS); assay: Therapeutic experiment using model animals of ulcerative colitis (Example 4); assay type: in vivo, C57BL6 mice; conditions: DSS mice, 5-ASA 300 mg/kg/day, Day 7
Procedure: To C57BL6 mice of 8 weeks old, 3% DSS (dextran sulfate sodium)-containing water or water (control) was administered by allowing the mice to drink it for 7 days. For the mice to which DSS was administered, groups in which 5-ASA (compound name: 5-aminosalicylic acid; generic name: Mesalazine), which is a therapeutic agent for inflammatory bowel diseases, the compound synthesized in Example 2-7 (H-31), or the compound synthesized in Example 2-36 (H-179) was administered, and a group in which no compound was administered were provided. On Day 7 after the beginning of the administration, the body weight of each mouse was measured, and the large intestine was removed from the mouse, followed by carrying out histological study. […] In FIGS. 4(A) and (B), “normal” indicates a case where water was administered, and “DSS” indicates cases where DSS-containing water was administered. “non” indicates a case where no compound was administered, and “5-ASA”, “H-31”, and “H-179” indicate cases where the respective compounds were administered. The dose was as follows: 5-ASA, 300 mg/kg/day; H-31, 1 mg/kg/day; H-179, 1 mg/kg/day. As shown in FIG. 4(A), weight loss due to inflammation of the intestine was found in the cases where DSS was administered.

Compound	tissue damage in the large intestine (stained section)
Nc1ccc(O)c(C(=O)O)c1 [Compound 5-ASA, 5-aminosalicylic acid, reference compound]	tissue damage in the large intestine due to DSS was found

same assay, conditions: DSS mice, compound 1 mg/kg/day, Day 7

Compound	tissue damage in the large intestine (stained section)
O=C(COc1cccc2ccccc12)O[C@H](Cc1ccc2ccccc2c1)C(=O)O [Compound H-179]	tissue damage in the large intestine was hardly found

same assay, conditions: DSS mice, compound 1 mg/kg/day, Day 7, vs no compound

Compound	weight loss (body weight as ratio to body weight before administration)
O=C(COc1cccc2ccccc12)O[C@H](Cc1ccc2ccccc2c1)C(=O)O [Compound H-179]	the weight loss was significantly smaller
